Data: patent US20170096402A1, “5-(HETERO)ARYLPYRIDAZINONES AND THEIR USE AS HERBICIDES” (BAYER CROPSCIENCE AKTIENGESELLSCHAFT, priority 2014, published 2017)

Experiments:
[1] = test system: Triticum aestivum (wheat); assay: Post-emergence method, damage to crop plants (also comparative experiments, TRZAS); assay type: in vivo
Description: Seeds of monocotyledonous and dicotyledonous weed and crop plants are laid out in sandy loam in wood-fiber pots, covered with soil and cultivated in a greenhouse under good growth conditions. 2 to 3 weeks after sowing, the test plants are treated at the one-leaf stage. The compounds of the invention, formulated in the form of wettable powders (WP) or as emulsion concentrates (EC), are then sprayed onto the green parts of the plants in the form of an aqueous suspension or emulsion at a water application rate equating to 600 to 800 I/ha, with addition of 0.2% wetting agent. After the test plants have been left to stand in the greenhouse under optimal growth conditions for about 3 weeks, the action of the preparations is assessed visually in comparison to untreated controls (herbicidal action in percent (%): 100% activity=the plants have died, 0% activity=like control plants).

wheat = assay: Pre-emergence method, damage to crop plants; assay type: in vivo
Text: Seeds of monocotyledonous and dicotyledonous weed plants and crop plants are laid out in wood-fiber pots in sandy loam and covered with soil. The compounds of the invention, formulated in the form of wettable powders (WP) or as emulsion concentrates (EC), are then applied to the surface of the covering soil in the form of an aqueous suspension or emulsion at a water application rate equating to 600 to 800 I/ha, with addition of 0.2% wetting agent. After the treatment, the pots are placed in a greenhouse and kept under good growth conditions for the trial plants. The damage to the test plants is scored visually after a test period of 3 weeks by comparison with untreated controls (herbicidal activity in percent (%): 100% activity=the plants have died, 0% activity=like control plants).

[2] = post-emergence, 20 g per hectare, about 3 weeks
[3] = pre-emergence, 320 g per hectare, 3 weeks

Row | SMILES | damage in wheat [1, 2] | damage in wheat (wheat; [3]) | damage in wheat (wheat; in vivo) | damage in wheat ([1]; in vivo)
1 | Cc1c(-c2cnn(C)c(=O)c2O)ccc(C(F)(F)F)c1[S+]([O-])CC1CC1 (centres unmarked) [1-554] | no damage | – | – | –
2 | COCCS(=O)(=O)c1c(C(F)(F)F)ccc(-c2cnn(C)c(=O)c2O)c1C [1-1071] | no damage | no damage | – | –
3 | COCC[S+]([O-])c1c(C(F)(F)F)ccc(-c2cnn(C)c(=O)c2O)c1C (centres unmarked) [1-1070] | no damage | no damage | – | –
4 | Cc1c(-c2cnn(C)c(=O)c2O)ccc(C(F)(F)F)c1S(=O)(=O)CC1CC1 [1-555, 5-{3-[(cyclopropylmethyl)sulfonyl]-2-methyl-4-(trifluoromethyl)phenyl}-4-hydroxy-2-methylpyridazin-3(2H)-one] | – | – | no damage | no damage
5 | Cc1c(-c2cnn(C)c(=O)c2O)ccc(C(F)(F)F)c1SCC1CC1 [1-553] | no damage | no damage | – | –
6 | COCCSc1c(C(F)(F)F)ccc(-c2cnn(C)c(=O)c2O)c1C [1-1069] | no damage | no damage | – | –
